Source: US9822139B2, “Pharmaceutical composition containing cyclometalated N-heterocyclic carbene complexes for cancer treatment” (THE UNIVERSITY OF HONG KONG, priority 2009, dated 2017)

How the values were obtained:
[1] = system: hepatocellular carcinoma (HepG2); test: MTT cytotoxicity assay, HepG2; type: cell-based, human; conditions: 72 h
Experimental: (§1) Example 2 describes the in vitro cytotoxicity, which is indicative of the induction of cell death and/or inhibition of cellular proliferation of cancer cells, of the cyclometalated N-heterocyclic complexes on cervical epithelioid carcinoma, hepatocellular carcinoma, leukemia, nasopharyngeal carcinoma, breast carcinoma, melanoma, and lung carcinoma.
(§2) By means of MTT assays, the cytotoxic properties of cyclometalated N-heterocyclic carbene complexes (1-25) were determined toward some established human cancer cell lines including hepatocellular carcinoma (HepG2), cervical epithelioid carcinoma (HeLa), epithelial carcinoma (KB and its camptothecin-resistant cell line KB100), non-small cell lung carcinoma (NCI-H460), leukemia (HL-60), breast carcinoma (MDA-MB-231), melanoma (B16) and nasopharyngeal carcinoma (SUNE1). […] In terms of the IC50 values, they display similar cytotoxic properties compared to the reference complexes cisplatin and camptothecin (CPT).

[2] = system: cervical epithelioid carcinoma (HeLa); test: MTT cytotoxicity assay, HeLa; type: cell-based, human; conditions: 72 h
Experimental: as §1, §2

[3] = system: epithelial carcinoma (KB); test: MTT cytotoxicity assay, KB; type: cell-based, human; conditions: 72 h
Experimental: as §1, §2

[4] = system: camptothecin-resistant cell line KB100; test: MTT cytotoxicity assay, KB100; type: cell-based, human; conditions: 72 h
Experimental: as §1, §2

[5] = system: non-small cell lung carcinoma (NCI-H460); test: MTT cytotoxicity assay, NCI-H460; type: cell-based, human; conditions: 72 h
Experimental: as §1, §2

[6] = system: breast carcinoma (MDA-MB-231); test: MTT cytotoxicity assay, MDA-MB-231; type: cell-based, human; conditions: 72 h, MBA-MD-231
Experimental: as §1, §2

[7] = system: melanoma (B16); test: MTT cytotoxicity assay, B16; type: cell-based, mouse; conditions: 72 h
Experimental: as §1, §2

[8] = system: leukemia (HL-60); test: MTT cytotoxicity assay, HL-60; type: cell-based, human; conditions: 72 h
Experimental: as §1, §2

[9] = system: lung fibroblast cells (CCD-19Lu); test: MTT cytotoxicity to non-cancerous cells, CCD-19Lu; type: cell-based, human; conditions: 72 h, non-cancerous lung fibroblast cells CCD-19Lu
Experimental: as §2
Using lung fibroblast cells (CCD-19Lu), the cytotoxicity of the complexes to non-cancerous cells was also examined.

[10] = system: established human cancer cell lines; test: MTT cytotoxicity, panel of cancer cell lines (summary statements); type: cell-based; conditions: in terms of IC50, versus cisplatin
Experimental: as §2

[11] = system: PLC tumor (hepatocellular carcinoma); test: In vivo anti-cancer study, nude mice bearing PLC tumor; conditions: 3 mg/kg/week for 28 days
From the text: Prompted by the prominent in vitro cytotoxicity and the potential cancer-cell selectivity, the in vivo anti-cancer property of complex 1 was preliminarily examined by using nude mice models with the approval from the Committee on the Use of Live Animals for Teaching and Research (The University of Hong Kong).

[12] = system: SUNE1 cells; test: Apoptosis induction by flow cytometry (AV-FITC / PI); type: cell-based; conditions: 72 h
Experimental: Since cancer is characterized by uncontrolled cellular proliferation, there is a considerable interest in chemotherapeutic-induced apoptosis [J. C. Reed, Nature Rev. Drug Discov. 2002, 1, 111; D. W. Nicholson, Nature 2000, 407, 810]. Using fluorescein-labeled annexin V (AV-FITC) and propidium iodide (PI), the apoptosis-inducing properties of complex 1 in SUNE1 cells were examined by flow cytometry. […] The apoptosis-inducing properties of complex 1 at a lower dose (12 μM for 72 h) were also examined. […] According to the propagation profiles (formazan absorbance A550nm vs incubation time) of the treated SUNE1 cells, there is a trend of cellular growth inhibition in the presence of complex 1 at 12 μM level. Taken together with the flow cytometric results, complex 1 appears to inhibit cancer cell proliferation at 12 μM and induce apoptosis at higher doses (i.e. 60 μM).
The apoptosis-inducing properties of complex 14 in SUNE1 cells were also examined by flow cytometry. […] The apoptosis-inducing properties of complex 14 at a lower dose (1 μM for 72 h) were also examined. […] Thus, complex 14 could induce apoptosis at 10 μM.

[13] = system: KB cells; test: Alkaline comet assay for DNA strand breaks; type: cell-based; conditions: for strand breaks on chromosomal DNA (comet assay): 3 h, KB cells; for reversal of DNA cleavage events upon second incubation: second incubation at 55° C. for 10 min
[14] = target: T1, topoisomerase I (TopoI) (Homo sapiens, UniProt P11387); test: TopoI-mediated relaxation of supercoiled DNA; type: biochemical
T1 sequence (P11387 1-765): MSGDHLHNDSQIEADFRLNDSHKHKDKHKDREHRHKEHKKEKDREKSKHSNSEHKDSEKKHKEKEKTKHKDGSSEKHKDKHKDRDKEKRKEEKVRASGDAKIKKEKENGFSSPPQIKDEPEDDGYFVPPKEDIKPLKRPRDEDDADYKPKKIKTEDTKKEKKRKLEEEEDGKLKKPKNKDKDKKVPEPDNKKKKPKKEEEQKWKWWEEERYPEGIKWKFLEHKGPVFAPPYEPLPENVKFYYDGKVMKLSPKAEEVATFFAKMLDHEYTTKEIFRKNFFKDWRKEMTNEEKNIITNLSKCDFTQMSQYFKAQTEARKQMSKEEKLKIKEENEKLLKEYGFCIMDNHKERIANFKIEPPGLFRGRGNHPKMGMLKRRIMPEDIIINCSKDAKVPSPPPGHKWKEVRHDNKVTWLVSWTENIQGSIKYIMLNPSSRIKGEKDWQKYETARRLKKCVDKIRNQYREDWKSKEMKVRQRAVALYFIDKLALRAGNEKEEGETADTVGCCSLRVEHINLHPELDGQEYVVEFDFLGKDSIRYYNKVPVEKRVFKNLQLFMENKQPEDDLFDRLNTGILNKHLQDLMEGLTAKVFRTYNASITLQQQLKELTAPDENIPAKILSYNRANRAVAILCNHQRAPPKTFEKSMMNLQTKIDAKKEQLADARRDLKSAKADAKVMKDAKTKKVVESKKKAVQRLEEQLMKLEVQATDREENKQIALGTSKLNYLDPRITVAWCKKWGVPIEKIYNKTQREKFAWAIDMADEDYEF
From the text: DNA strand breaks were also detected in complex 1-treated KB cells by alkaline comet assay. […] Topoisomerases have become one of the important cellular targets for anti-cancer treatment. It is believed that topoisomerase inhibitors prevent the ligation step of the cell cycle, generate DNA strand breaks, and subsequently induce apoptosis in cells. […] The assay was repeated on ethidium bromide containing gel (FIG. 4, lower).

[15] = target: T2, TopoI (Homo sapiens, UniProt P11387); test: Band depletion assay for TopoI cleavable complexes; type: cell-based; conditions: KB cells
T2 construct: endogenous in cells; host or cells: KB cells
T2 sequence (P11387 1-765): T1 sequence (P11387 1-765)
From the text: In this assay, while TopoI-DNA cleavable complexes are trapped by alkaline lysis, free TopoI is detected as an immunoreactive band.

Work on `Cn1cc[n+](C)[c]1[Au-]12[c]3ccccc3-c3cccc([n+]31)-c1cccc[c]12.O=S(=O)([O-])C(F)(F)F` [Complex 1] yielded an IC50 [1] of 0.37 µM, an IC50 [2] of 0.15 µM and an IC50 [3] of 0.56 µM. It also gave an IC50 [4] of 1.2 µM, an IC50 [5] of 0.17 µM and an IC50 [6] of 0.62 µM. It also gave an IC50 [7] of 0.33 µM, an IC50 [8] of 0.48 µM and an IC50 [9] of 25 µM. For the same compound, the “fold higher cytotoxic activity than cisplatin” value [10] was 18 to 28 fold, the “toxic side-effect including death and weight loss” value ([11]; nude mice) was “no apparent 1-induced toxic side-effect including death and weight loss was observed” and the “suppression of tumor growth compared to vehicle control” value ([11]; nude mice bearing PLC tumor) was 47%. The “viable cells unstained by both AV-FITC and PI” value ([12]; 12 μM) was about 90%, the “SUNE1 cells in early apoptotic state” value ([12]; 60 μM) was 30.9% and the “strand breaks on chromosomal DNA (comet assay)” value ([13]; 0.5 μM) was “induced extensive strand breaks on chromosomal DNA”. For the same compound, the “reversal of DNA cleavage events upon second incubation” value [13] was “partially reversed”, the “inhibition of TopoI-mediated DNA relaxation” value ([14]; 10 μM) was “completely inhibited” and the “inhibition of TopoI-mediated DNA relaxation” value ([14]; dose response, compared with CPT) was “dose-dependently inhibits DNA relaxation at significant lower concentrations than CPT”. The “nicked DNA (stimulation of DNA cleavage by TopoI)” value ([14]; ethidium bromide containing gel) was “presence of nicked DNA was observed” and the “band intensity of the TopoI band” value ([15]; 10 and 100 nM) was “reduced the band intensity of the TopoI band”.

With `CC[C@@]1(O)C(=O)OCc2c1cc1n(c2=O)Cc2cc3ccccc3nc2-1` [CPT, camptothecin] the “strand breaks on chromosomal DNA (comet assay)” value ([13]; 1 μM) was “induced extensive strand breaks on chromosomal DNA”, the “reversal of DNA cleavage events upon second incubation” value [13] was “partially reversed” and the “band intensity of the TopoI band” value ([15]; 1 μM) was “reduced the band intensity of the TopoI band”.
